Test results taken from ChEMBL document CHEMBL1126082, “Nucleosides and nucleotides. 107. 2-(cycloalkylalkynyl)adenosines: adenosine A2 receptor agonists with potent antihypertensive effects” (J Med Chem, 1992).

Assays:
Rattus norvegicus [1] = test: Dose producing 10% decrease in heart rate of anaesthetized spontaneous hypertensive male rat(SHR); assay type: functional
Rattus norvegicus [2] = test: Dose producing 30% decrease in blood pressure of anesthetized spontaneous hypertensive male rat(SHR); assay type: functional
Adenosine receptor A1 = molecular target: T1, Adenosine receptor A1 (Rattus norvegicus, UniProt P25099); test: Inhibition of [3H]CHA binding to adenosine A1 receptor from rat brain membranes; assay type: cell membranes, Membrane
T1 sequence (P25099 whole entry): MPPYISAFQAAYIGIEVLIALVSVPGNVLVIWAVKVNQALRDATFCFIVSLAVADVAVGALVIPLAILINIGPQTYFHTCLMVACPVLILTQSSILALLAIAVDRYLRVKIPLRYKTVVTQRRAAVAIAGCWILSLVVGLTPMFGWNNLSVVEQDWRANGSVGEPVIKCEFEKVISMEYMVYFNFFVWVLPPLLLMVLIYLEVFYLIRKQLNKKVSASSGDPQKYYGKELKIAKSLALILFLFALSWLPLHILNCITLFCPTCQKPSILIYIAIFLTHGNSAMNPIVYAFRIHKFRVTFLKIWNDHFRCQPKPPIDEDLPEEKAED

Adenosine A2 receptor = Adenosine A2 receptor (Rattus norvegicus, UniProt P29276+P30543)
Description: Inhibition of [3H]NECA binding to adenosine A2 receptor from rat striatal membranes

Row | SMILES | Ki (Adenosine receptor A1) | Ki (Adenosine A2 receptor) | ED10 (Rattus norvegicus [1]) | ED30 (Rattus norvegicus [2])
1 | Nc1nc(C#CC2(O)CCCCCCC2)nc2c1ncn2[C@@H]1O[C@H](CO)[C@@H](O)[C@H]1O |  |  | 13 µg/kg | 0.01 µg/kg
2 | Nc1nc(C#CCCCC2CCCCC2)nc2c1ncn2C1O[C@H](CO)[C@@H](O)[C@H]1O (stereo not given in full) | > 229 nM | 46 nM | > 100 µg/kg | 1.64 µg/kg
3 | Nc1nc(C#CC2(O)CCCCC2)nc2c1ncn2[C@@H]1O[C@H](CO)[C@@H](O)[C@H]1O |  |  | 3.5 µg/kg | 0.02 µg/kg
4 | Nc1nc(C#CCCC2CCCC2)nc2c1ncn2C1O[C@H](CO)[C@@H](O)[C@H]1O (stereo not given in full) | 136 nM | 3.4 nM | > 100 µg/kg | 0.16 µg/kg
5 | COc1cc(OC)cc(C(CNc2ncnc3c2ncn3[C@@H]2O[C@H](CO)[C@@H](O)[C@H]2O)c2ccccc2C)c1 (stereo not given in full) | 108 nM | 6.9 nM | > 100 µg/kg | 
6 | Nc1nc(C#CC2(O)CCCCCC2)nc2c1ncn2[C@@H]1O[C@H](CO)[C@@H](O)[C@H]1O | 27 nM | 1.1 nM | 5.6 µg/kg | 0.02 µg/kg
7 | Nc1nc(C#CCCC2CCCCC2)nc2c1ncn2C1O[C@H](CO)[C@@H](O)[C@H]1O (stereo not given in full) | 313 nM | 26 nM | > 100 µg/kg | 0.48 µg/kg
8 | Nc1nc(C#CCC2CCCC2)nc2c1ncn2[C@@H]1O[C@H](CO)[C@@H](O)[C@H]1O |  | 2.3 nM | > 100 µg/kg | 0.05 µg/kg
9 | CCNC(=O)[C@H]1O[C@@H](n2cnc3c(N)nc(NCCc4ccc(CCC(=O)O)cc4)nc32)[C@H](O)[C@@H]1O [CGS-21680] |  |  | > 100 µg/kg | 0.97 µg/kg
10 | Nc1nc(C#CCC2CCCCC2)nc2c1ncn2C1O[C@H](CO)[C@@H](O)[C@H]1O (stereo not given in full) |  |  | > 100 µg/kg | 0.15 µg/kg
11 | CCCCC#Cc1nc(N)c2ncn([C@@H]3O[C@H](CO)[C@@H](O)[C@H]3O)c2n1 |  |  | 67 µg/kg | 0.11 µg/kg

Now from value to molecule, other results behind:

Row | Ki (Adenosine receptor A1) | Ki (Adenosine A2 receptor) | SMILES | ED10 (Rattus norvegicus [1]) | ED30 (Rattus norvegicus [2])
12 | 32 nM | 19 nM | CC(C)(O)C#Cc1nc(N)c2ncn([C@@H]3O[C@H](CO)[C@@H](O)[C@H]3O)c2n1 | 1.4 µg/kg | 0.14 µg/kg
13 | 400 nM | 37 nM | Nc1nc(C#CCCc2ccccc2)nc2c1ncn2[C@@H]1O[C@H](CO)[C@@H](O)[C@H]1O | > 100 µg/kg | 1.21 µg/kg
14 | 8.3 nM | 20 nM | Nc1nc(C#CCO)nc2c1ncn2[C@@H]1O[C@H](CO)[C@@H](O)[C@H]1O | 0.74 µg/kg | 0.36 µg/kg
15 | 11 nM | 2 nM | CCCCCC(O)C#Cc1nc(N)c2ncn(C3O[C@H](CO)[C@@H](O)[C@H]3O)c2n1 (stereo not given in full) | 0.45 µg/kg | 0.06 µg/kg
16 | 11 nM | 3.3 nM | Nc1nc(C#CC2(O)CCCC2)nc2c1ncn2C1O[C@H](CO)[C@@H](O)[C@H]1O (stereo not given in full) | 1.6 µg/kg | 0.07 µg/kg
17 | 15 nM | 18 nM | CC(O)C#Cc1nc(N)c2ncn([C@@H]3O[C@H](CO)[C@@H](O)[C@H]3O)c2n1 (stereo not given in full) | 0.8 µg/kg | 0.15 µg/kg
18 | 88 nM | 12 nM | Nc1nc(C#CC2CCCC2)nc2c1ncn2[C@@H]1O[C@H](CO)[C@@H](O)[C@H]1O | > 100 µg/kg | 0.29 µg/kg
19 | 16 nM | 1.8 nM | CCCC(O)C#Cc1nc(N)c2ncn(C3O[C@H](CO)[C@@H](O)[C@H]3O)c2n1 (stereo not given in full) | 0.83 µg/kg | 0.04 µg/kg
20 | 133 nM | 7.9 nM | CCCCCCC#Cc1nc(N)c2ncn([C@@H]3O[C@H](CO)[C@@H](O)[C@H]3O)c2n1 | > 100 µg/kg | 0.2 µg/kg
21 | 138 nM | 10 nM | Nc1nc(C#CC2CCCCC2)nc2c1ncn2C1O[C@H](CO)[C@@H](O)[C@H]1O (stereo not given in full) | > 100 µg/kg | 0.36 µg/kg
22 | 3.4 nM | 1.9 nM | Nc1nc(C#CC(O)c2ccccc2)nc2c1ncn2[C@@H]1O[C@H](CO)[C@@H](O)[C@H]1O (stereo not given in full) | 1.3 µg/kg | 0.05 µg/kg
23 | 701 nM | 109 nM | Nc1nc(C#Cc2ccccc2)nc2c1ncn2[C@@H]1O[C@H](CO)[C@@H](O)[C@H]1O | > 100 µg/kg | 10.1 µg/kg
